# From US20110046142A1, “ANTIBIOTIC COMPOUNDS” (priority 2007, published 2011)
# Read-outs that look alike come from different tables or passages of the source.
# Assays:
# [1] = system: P. aeruginosa; test: Killing of logarithmic, stationary and biofilm cultures, colony count; type: cell-based; conditions: for percentage of live cells: 5 μg/ml, 6 hrs
# Description: Persister cells in planktonic and biofilm populations are characterized for their antibiotic sensitivity in this example. Several bactericidal antimicrobials were chosen to test the resistance of P. aeruginosa to killing—ofloxacin, a fluoroquinolone; tobramycin, an aminoglycoside; carbenicillin, a β-lactam; and peracetic acid, a disinfectant oxidant (Spoering et al. (2001) J. Bacteriol. 183:6746-6751). Biofilms were grown essentially by the method of Ceri (Ceri et al. (1999) J. Clin. Microbiol. 37:1771-1776) and as described in Brooun et al. (2000) Antimicrob. Agents Chemother. 44:640-646. The device used for biofilm formation is a platform carrying 96 polystyrene pegs that fit in a microtiter plate. Preformed biofilms were incubated in the presence of an antimicrobial agent, and survival was measured after disrupting the biofilms by colony count.
# Logarithmic state, stationary and biofilm cultures were challenged with carbenicillin. Carbenicillin is a bactericidal antibiotic that, similarly to most β-lactams, only kills rapidly growing cells (Tuomanen et al. (1986) Scand. J. Gastroenterol. Suppl:10-14). […] The amount of killing of logarithmic cells approached a plateau at concentrations above 1.67×MIC, indicating the presence of a persister subpopulation. These 0.1% cells in the rapidly growing logarithmic culture were invulnerable to killing by carbenicillin at 600 μg/ml.
# Unlike carbenicillin, ofloxacin can kill non-growing cells (Brooun et al. (2000) Antimicrob. Agents Chemother. 44:640-646). Logarithmic, stationary and biofilm cultures were challenged with ofloxacin over a wide range of concentrations, from 1×MIC (0.5 μg/ml) to 30×MIC (15 μg/ml). After a 6 hrs incubation time with the antibiotic, viability was determined by colony count. The majority of cells in the three populations examined were killed at low concentrations of ofloxacin (FIG. 3B). The killing in all three cultures was distinctly biphasic, indicating the presence of persister cells. The levels of persisters were dramatically higher in the dense stationary planktonic and biofilm cultures as compared to logarithmic cells. […] At 5 μg/ml ofloxacin, which is the clinically achievable concentration (Schulz et al. (1997) Pharmazie 52:895-911), the percentage of live cells was 0.001% in the logarithmic population, 0.1% in the biofilm and 2.5% in the stationary culture (FIG. 3B).
# Tobramycin at 50 μg/ml (the maximal clinically achievable concentration is 10 μg/ml), (Schulz et al. (1997) Pharmazie 52:895-911) eliminated 90% of the biofilm cells, and the remaining population declined gradually with increasing amounts of the antibiotic. At high concentrations surviving persisters became apparent. Tobramycin was ineffective against stationary planktonic cells, apparently due to the dependence of killing of growth.
# Peracetic acid, an oxidizing disinfectant, was used in order to test the ability of a sterilizing agent to act against persisters. […] Similar results showing biphasic killing, and high level of persisters in stationary and biofilm populations, also were obtained with S. aureus and E. coli (Keren et al. (2004) FEMS Microbiol. Lett. 230:13-18).
# [2] = system: P. aeruginosa; test: MIC; type: cell-based; conditions: Pseudomonas aeruginosa; 1×MIC
# [3] = Schulz et al. (1997); cited from earlier work
# [4] = system: E. coli K12 knockout pool (BacPool) and wild type; test: Prodrug screen, growth/no growth of BacPool knockout mix versus wild type; type: cell-based; conditions: compounds at about 46-50 μg/ml, OD600 after overnight incubation
# Text: A complete, ordered E. coli K12 knockout library of 4320 genes and predicted ORFs (the Keio library) was used (Baba et al. (2006). Mol. Systems Biol. 2:2006.0008). The knockouts were constructed using the Wanner method with a kanamycin cassette replacing the ORFs (Datsenko et al. (2000) Proc. Natl. Acad. Sci. USA 97:6640-6645). All strains of this library were combined in a mix BacPool1) for screening. This permitted screening of the library against all strains simultaneously, instead of screening a full industry-size library against each of the individual E. coli 4×10^3 knockout strains.
# The library mix was prepared by first culturing all strains overnight in LB medium, and then adding equal aliquots into a tube. This material was then mixed, dispensed in vials and stored at −80° C. For the screen, one vial was thawed, diluted to 10^5 cells/ml in LB, and dispensed into 384 well microtiter plates. The compounds were added from DMSO stocks at a final concentration of 46 μg/ml. The same compounds were added to plates containing the wild type isogenic control. Screening was performed at the Harvard NSRB/NERCE screening facility that host a collection of 150,000 compounds (see Tables 1A and 1B). All screens at NSRB/NERCE were performed in duplicate, which strongly decreases the rate of false positives and negatives. For each tested molecule there are three possible scenarios when scoring for growth/no growth:
# Growth in both the BacPool and K12 wells: indicates lack of antimicrobial activity;
# Growth inhibition in both the BacPool and K12 wells: a possible antibiotic (direct activity) or generally toxic compound is present, but is not a prodrug; or
# Growth of a BacPool well and no growth of the K12 well: a prodrug hit.
# After an overnight incubation of plates at 37° C., the plates were read at OD600. Compounds that had no effect on the growth of the mix and inhibited the growth of the wild type were recorded as hits. The wells with growth indicated a prodrug hit that is not converted into a drug by a particular deletion mutant in the mix. The mutant strain is then identified in a secondary screen (see Example 2).
# Yet another screen was performed on 147,500 compounds, using the protocol described below. […]
# An E. coli KanR culture was grown in LB broth containing 50 μg/ml Kanamycin for 20 hrs at 37° C. in a shaking incubator. […] The plates were then incubated for 20 hrs at 37° C., and then the plates were read for Optical Density at 600 nm and were scored for growth/no growth. […]
# Hits were identified by calculating the % of inhibition of growth of E. coli measured by OD600. The data were analyzed as follows: negative controls (N), positive controls (P), and compounds (X) ODs were separately averaged and the resulting means were used to calculate % of inhibition of E. coli growth: […]
# [5] = system: E. coli K12; test: Growth/no growth control wells (Z′-factor), OD600; type: cell-based
# Description: The general procedure to establish the Z′-factor was tested. Since the output of the screening is a typical growth/no growth assay, this was performed by comparing growth in control wells to those containing a model antimicrobial, ciprofloxacin at 30 μg/ml. E. coli K12 were cultured in LB medium, and exponentially-growing cells were dispensed at 10^6/ml in 384-well microtiter plates, 30 μl/well. Six plates were used in this experiment. Ciprofloxacin was added to half of the wells (3 μl in LB, bringing the final volume to 33 μl). After an overnight incubation at 37 C, the OD600 of the plates were read, and the values of each well were used to calculate Z′-factor: Z′=1−(3SD++3SD−)/IAve+−Ave−I, where: SD+=positive control standard deviation; SD−=negative control standard deviation; Ave+=positive control average; and Ave−=negative control average). The following table for Z′-factor interpretation was used:
# Before beginning the screen, a Z′-test was run. This was conducted by comparing growth in negative control wells to those with the prodrug AZT at 5 μg/ml. E. coli K12 cells were cultured in LB medium, and exponentially-growing cells were dispensed at 10^5/ml in 384-well microtiter plates, 30 μl/well. Four plates were used in this experiment. After an overnight incubation at 37° C., the OD600 of the plates were read, and the values of each well were used to calculate Z′-factor: […]
# [6] = system: E. coli K12 wt; test: MIC, standard broth microdilution assay; type: cell-based; conditions: LB broth, 10^5 cells per well, 1 mM IPTG
# Description: (§1) The ASKA strains of interest are validated for functional expression of the enzyme. If the protein is not expressed from a given expression vector the ORF is recloned. A strain overexpressing the activating enzyme from the ASKA library is then tested with the hit compound. If the hit has greater activity against this overexpressing strain as compared to the wild type, this indicates a prodrug. The test is performed in a standard broth microdilution assay for MIC determination. Hits with the lowest wild type MIC are then examined.
# (§2) Cells were tested in a standard broth microdilution assay, inoculating 10^5 cells per well of a microtiter plate in LB broth. Overexpression and deletion strains were compared to the appropriate isogenic wild type. IPTG was added at 1 mM to growth medium. Experiments involving nfnB and nfsA strains were performed under anaerobic conditions.
# [7] = system: E. coli K12 overexpressing activating enzyme; test: MIC, standard broth microdilution assay, overexpression strains; type: cell-based
# Description: as §1, §2
# [8] = system: E. coli K12 Δactivating enzyme; test: MIC, standard broth microdilution assay, deletion strains; type: cell-based; conditions: Escherichia coli, anaerobic conditions
# Description: as §1, §2
# [9] = system: E. coli K12 ΔtolC overexpressing activating enzyme; test: MIC, standard broth microdilution assay, tolC deletion (MDR efflux); type: cell-based
# Text: Prodrugs are activated by activating enzymes into reactive molecules that bind to their targets, creating an irreversible sink. This may lead to insensitivity of the overall process to MDR efflux. In order to test this possibility, an E. coli K12 with a deletion in tolC coding for the outer membrane porin that is a component of the transenvelope MDRs was utilized (Li (2004) Drugs 64:159-204). This strain is highly sensitive to antibiotics (Tegos et al. (2002) Antimicrob. Agents Chemother. 46:3133-3141). […] The substrate specificity of AcrAB is remarkably broad, and includes essentially all small molecular weight amphipathic compounds. The AcrAB substrates include anions (SDS, fatty acids, bile acids), neutral compounds (macrolides, chloramphenicol, tetracyclines) and cations or compounds that can form cations (acridine, quaternary compound antiseptics, fluoroquinolones). AcrAB can extrude a natural broad spectrum antibiotics that evolved for good penetration, chloramphenicol and tetracycline; and also extrude synthetic broad-spectrums, the fluoroquinolones.
# as §2
# [10] = system: wild type bacterial strain (E. coli), stationary state; test: Dose-dependent killing of stationary state cells, plating and colony count; type: cell-based; conditions: anaerobic, 6 hours incubation, biphasic killing
# Description: FIG. 10 is a graphical representation of the dose-dependent killing of E. coli by metronidazole. Stationary phase cells grown in LB medium in the presence of 1 mM IPTG under anaerobic conditions were challenged for 6 hrs with increasing concentrations of metronidazole and then plated on LB agar plates.
# The killing ability of metronidazole was examined. The wild type bacterial strain was grown to stationary state under anaerobic conditions, and dose-dependent killing after incubation with metronidazole for 6 hours was detected by plating and colony count (FIG. 10). […] This is the first observation of a sterilizing activity of an antibiotic against a stationary state bacterial population. Previously, it was only possible to kill persisters and sterilize an infection with peracetic acid (FIG. 2); (Spoering et al. (2001) J. Bacteriol. 183:6746-6751).
# [11] = system: strain overexpressing the activating enzyme, NfnB or NfsA; test: as above; type: cell-based, E. coli; conditions: for sterilization of the population: nfnB^+ strain, limit of detection 6 logs of killing, <10 cells/ml
smiles,measurement,setting,value
NC[C@H]1O[C@H](O[C@H]2[C@H](O)[C@@H](O[C@H]3O[C@H](CO)[C@@H](O)[C@H](N)[C@H]3O)[C@H](N)C[C@@H]2N)[C@H](N)C[C@@H]1O [tobramycin],biofilm cells eliminated,"[1]; biofilm, 50 μg/ml",90%
same,logarithmic persisters,"[1]; logarithmic cells, 1 to 1500 μg/ml",no logarithmic persisters were detected
same,killing of stationary cells,[1]; stationary planktonic cells,ineffective
same,MIC,[2],1 µg/mL
same,(maximal) clinically achievable concentration,[3],10 µg/mL
CC1COc2c(N3CCN(C)CC3)c(F)cc3c(=O)c(C(=O)O)cn1c23 (stereo not shown) [ofloxacin],percentage of live cells,[1]; biofilm,0.1%
same,percentage of live cells,[1]; logarithmic population,0.001%
same,percentage of live cells,[1]; stationary culture,2.5%
same,MIC,[2],0.5 µg/mL
same,(maximal) clinically achievable concentration,[3],5 µg/mL
Cc1cn([C@H]2C[C@H](N=[N+]=[N-])[C@@H](CO)O2)c(=O)[nH]c1=O [zidovudine],screen outcome (prodrug hit / direct activity),[4],prodrug hits
same,inhibition of E. coli growth,[5]; positive control at 5 μg/ml,complete inhibition
O=C(O)c1cn(C2CC2)c2cc(N3CCNCC3)c(F)cc2c1=O [ciprofloxacin],growth in wells with antibiotic,"[5]; 30 μg/ml, overnight at 37 C",no case of substantial growth
Cc1ncc([N+](=O)[O-])n1CCO [Metronidazole],MIC,"[6]; Escherichia coli, K12WT, read-out: MIC",> 500 µg/mL
same,MIC,[6],563 µg/mL
same,sensitivity of the overexpression strain as compared to the wild type control,[7]; E. coli overexpressing NfnB,greater than 50 fold
same,MIC,[7]; Escherichia coli,8.8 µg/mL
same,MIC,"[7]; nfnB^+ overexpressing strain, 1 mM IPTG, anaerobic conditions",nfnB^+ 8.8 μg/ml
same,MIC,"[7]; nfsA^+ overexpressing strain, 1 mM IPTG, anaerobic conditions",nfsA^+ 8.8 μg/ml
same,MIC,"[7]; nfsA^+ overexpressing strain, 1 mM IPTG, anaerobic conditions, listed as metronidazole",8.8 µg/mL
same,MIC,[8]; nfnB^− deletion strain,1120 µg/mL
same,MIC,[8]; nfsA^− deletion strain,2250 µg/mL
same,MIC,[9]; Escherichia coli,8.8 µg/mL
same,MIC,"[9]; ΔtolC, nfsA^+ overexpressing strain",nfsA^+ 8.8 μg/ml
same,tolerant persister cells,[10],about 1%
same,sterilization of the population,[11],completely “sterilized”
same,sterilization of the population,[11]; listed as metronidazole,complete sterilization
same,surviving persisters,"[11]; strain overexpressing NfnB or NfsA, stationary state, 6 hours",no surviving persisters were detected
